Test results reported in patent US10807974B2, “Methylamine derivatives as lysysl oxidase inhibitors for the treatment of cancer” (The Institute of Cancer Research: Royal Cancer Hospital, priority 2016, dated 2020).
Where a name gives a salt, the structure may show the parent alone. Read-outs that look alike come from different tables or passages of the source. Each block holds one compound with its values, some of them ahead of it.

Columns and labels:
LOXL2 = LOXL2 (Homo sapiens (Human), UniProt Q9Y4K0); test: LOXL2 enzyme activity assay (ROS-Glo; pre-incubation 20 min Method (a), 60 min Method (b), 20 h Method (c)); type: biochemical
MAO-A = MAO-A (Homo sapiens (Human), UniProt P21397); test: Monoamine oxidase A (MAO-A) selectivity assay; type: biochemical
MAO-B = MAO-B (Homo sapiens (Human), UniProt P27338); test: Monoamine oxidase B (MAO-B) selectivity assay; type: biochemical
[1] = system: MATN2 in MDA-MB-231 cells; test: MATN2 level in treated cells; type: cell-based, human
Protocol: All samples were fixed in 4% paraformaldehyde (EMS). Fixed cells were then subjected to incubation with primary antibodies followed by fluorescence secondary antibodies (Life Technologies) to visualise extracellular proteins. Anti-human MATN2 (R&D) antibody was used at 1:100 dilutions. DAPI (Sigma) was used to stain DNA.
Proteins were extracted from cultured cells using cell lysis buffer (Cell Signalling Technology) with the addition of protease and phosphatase inhibitor cocktails (Pierce). Protein concentrations were measured using Pierce 660 nm protein assay reagent and SpectaMax M5 plate reader. […] Separated proteins were transferred to nitrocellulose membranes using a Trans-Blot turbo transfer system (Bio-Rad). Following blocking with Odyssey blocking buffer (Li-COR), membranes were incubated with two primary antibodies of different species at 4° C. over night. Corresponding fluorescence secondary antibodies (Li-COR) of different excitation and emission wavelengths were used to visualize the protein of interest on an Odyssey CLx infrared imaging system (Li-COR). Quantification of band fluorescent intensity was achieved using Li-COR ImageStudio. The following primary antibodies were used, anti-LOX (Sigma), anti-human MATN2 (R&D), anti-EGFR and anti-pY1068EGFR (Cell Signalling Technology), and anti-GAPDH (Millipore).

in vivo [2] = settings: rat, po, 20 mg/kg
in vivo [3] = settings: female, mouse, po, 50 mg/kg
myocardial fibrosis = settings: mouse model (Rosin, Sopel et al. 2015); cited from earlier work
adipose tissue = settings: Heiberg, Khan et al. 2009; cited from earlier work
[4] = system: experimental pulmonary hypertension; settings: Nave, Mizikova et al. 2014; cited from earlier work
[5] = system: human breast cancer cells; settings: cited from earlier work
3D cell culture = 3D cell culture (not in 2D) (Schuetze, Roehrig et al. 2015); cited from earlier work
[6] = system: angiotensin II-induced cardiac hypertrophy; settings: in vivo (Ohmura, Yasukawa et al. 2012); cited from earlier work
[7] = system: human breast cancer cells; settings: mice treated with conditioned medium in the presence of BAPN; cited from earlier work
[8] = system: diet-induced obesity in rats; settings: diet-induced obesity in rats (Miana, Galan et al. 2015); cited from earlier work
schistosomiasis = settings: cited from earlier work
Staphylococcus Aureus = settings: Beerlage, Greb et al. 2013; cited from earlier work
[9] = system: TGF beta signalling (pSMAD2); test: TGF beta signalling (pSMAD2); type: cell-based; settings: FIG. 15b
cervical cancer cells = cervical cancer cells (Yang et al. 2013); cited from earlier work
human cancer cell lines = settings: several human cancer cell lines; cited from earlier work
[10] = read-out: LOXL2 IC50 b) 1 hr, pre-incubation 1 hr, Method (b)

MAO-B, sequence (P27338 whole entry): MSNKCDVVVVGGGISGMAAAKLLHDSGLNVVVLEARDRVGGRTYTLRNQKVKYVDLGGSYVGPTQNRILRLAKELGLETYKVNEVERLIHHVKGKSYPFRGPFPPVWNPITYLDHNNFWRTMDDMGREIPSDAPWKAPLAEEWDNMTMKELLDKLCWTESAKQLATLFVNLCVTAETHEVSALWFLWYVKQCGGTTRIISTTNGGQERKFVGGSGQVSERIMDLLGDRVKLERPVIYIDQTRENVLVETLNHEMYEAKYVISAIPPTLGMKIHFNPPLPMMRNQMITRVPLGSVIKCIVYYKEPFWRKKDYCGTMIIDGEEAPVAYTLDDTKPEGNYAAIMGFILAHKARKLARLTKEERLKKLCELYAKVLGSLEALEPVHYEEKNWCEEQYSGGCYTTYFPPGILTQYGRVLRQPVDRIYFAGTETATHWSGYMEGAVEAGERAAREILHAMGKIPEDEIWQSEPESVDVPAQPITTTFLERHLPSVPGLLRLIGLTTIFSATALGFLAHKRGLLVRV
LOXL2, sequence (Q9Y4K0 26-774, species assumed): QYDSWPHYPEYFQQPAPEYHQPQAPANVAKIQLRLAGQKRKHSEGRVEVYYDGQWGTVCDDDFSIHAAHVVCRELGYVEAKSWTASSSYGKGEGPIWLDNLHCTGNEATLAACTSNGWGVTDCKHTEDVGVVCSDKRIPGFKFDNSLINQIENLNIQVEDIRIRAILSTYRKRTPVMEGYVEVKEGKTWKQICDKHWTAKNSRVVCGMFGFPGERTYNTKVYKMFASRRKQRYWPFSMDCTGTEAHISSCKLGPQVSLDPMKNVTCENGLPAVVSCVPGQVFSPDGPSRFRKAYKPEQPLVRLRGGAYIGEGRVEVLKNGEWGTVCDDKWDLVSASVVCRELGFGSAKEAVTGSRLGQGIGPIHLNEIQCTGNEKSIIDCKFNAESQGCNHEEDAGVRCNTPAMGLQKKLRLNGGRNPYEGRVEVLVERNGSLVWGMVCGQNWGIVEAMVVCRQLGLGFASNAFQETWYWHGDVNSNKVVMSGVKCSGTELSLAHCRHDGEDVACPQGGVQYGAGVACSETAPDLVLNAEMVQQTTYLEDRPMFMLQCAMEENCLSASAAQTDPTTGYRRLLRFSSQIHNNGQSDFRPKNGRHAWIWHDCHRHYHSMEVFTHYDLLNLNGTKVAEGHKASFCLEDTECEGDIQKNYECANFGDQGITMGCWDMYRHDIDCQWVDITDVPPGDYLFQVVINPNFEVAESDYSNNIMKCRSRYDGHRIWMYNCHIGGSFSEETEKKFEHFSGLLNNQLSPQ
MAO-A, sequence (P21397 whole entry): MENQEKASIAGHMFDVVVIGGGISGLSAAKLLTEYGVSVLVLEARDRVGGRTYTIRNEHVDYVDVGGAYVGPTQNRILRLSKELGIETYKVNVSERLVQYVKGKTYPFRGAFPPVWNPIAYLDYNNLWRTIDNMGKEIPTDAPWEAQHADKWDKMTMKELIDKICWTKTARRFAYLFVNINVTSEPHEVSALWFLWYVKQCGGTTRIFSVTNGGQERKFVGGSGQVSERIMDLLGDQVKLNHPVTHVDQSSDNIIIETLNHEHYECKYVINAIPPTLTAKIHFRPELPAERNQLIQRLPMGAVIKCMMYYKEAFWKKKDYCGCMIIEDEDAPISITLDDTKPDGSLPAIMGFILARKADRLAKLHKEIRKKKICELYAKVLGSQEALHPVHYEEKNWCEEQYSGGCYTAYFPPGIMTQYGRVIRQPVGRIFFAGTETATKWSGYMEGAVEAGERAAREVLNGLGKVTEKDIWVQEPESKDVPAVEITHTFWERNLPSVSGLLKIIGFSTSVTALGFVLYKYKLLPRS

IC50 (LOXL2; pre-incubation 1 hr, Method (b)): 0.26 µM
SMILES: NCc1ncc(S(=O)(=O)c2cc(C(=O)N3CCC(O)C3)cc(-c3ccccc3)c2)s1 (stereo not shown) [Example 149, (5-((2-(Aminomethyl)thiazol-5-yl)sulfonyl)-[1,1′-biphenyl]-3-yl)(3-hydroxypyrrolidin-1-yl)methanone Dihydrochloride]

IC50 (MAO-A): > 100 µM | IC50 (MAO-B): > 100 µM
SMILES: CN(C)C(=O)c1cc(-c2ccccc2)cc(S(=O)(=O)c2cnc(CN)s2)c1 [Example 125, 5-((2-(Aminomethyl)thiazol-5-yl)sulfonyl)-N,N-dimethyl-[1,1′-biphenyl]-3-carboxamide Dihydrochloride]

SMILES: NCc1ncc(S(=O)(=O)c2cc3ccccc3c3ccccc23)s1 [Example 97, (5-(Phenanthren-9-ylsulfonyl)thiazol-2-yl)methanamine Hydrochloride]
IC50 (MAO-B): > 100 µM

IC50 (LOXL2; [10]): 19 µM
SMILES: Cn1c(S(=O)(=O)c2ccc3ccccc3c2)cnc1CN [Example 123, (1-Methyl-5-(naphthalen-2-ylsulfonyl)-1H-imidazol-2-yl)methanamine Dihydrochloride]

SMILES: CS(=O)(=O)c1cc(-c2ccccc2)cc(S(=O)(=O)c2ccc(CN)s2)c1 [Example 68, (5-((5-(Methylsulfonyl)-[1,1′-biphenyl]-3-yl)sulfonyl)thiophen-2-yl)methanamine]
MATN2 level ([1]; FIG. 15b): MATN2 reduction

SMILES: NCc1ncc(S(=O)(=O)c2cc(C(=O)O)cc(-c3ccccc3)c2)s1 [Example 126, 5-((2-(Aminomethyl)thiazol-5-yl)sulfonyl)-[1,1′-biphenyl]-3-carboxylic Acid Ditrifluoroacetate]
IC50 (MAO-A): > 100 µM | AUC (in vivo [2]): 106 µM·h | Cmax (in vivo [2]): 35 µM | AUC (in vivo [3]): 413 µM·h | Cmax (in vivo [3]): 100 µM | IC50 (MAO-B): > 100 µM

IC50 (LOXL2; [10]): 0.15 µM
SMILES: CCNC(=O)c1cc(-c2cnn(C)c2)cc(S(=O)(=O)c2cnc(CN)s2)c1 [Example 154]

IC50 (LOXL2; [10]): 0.31 µM
SMILES: CN(C)C(=O)c1cc(-c2ccccc2)cc(S(=O)(=O)c2csc(CN)n2)c1 [Example 162, 5-((2-(Aminomethyl)thiazol-4-yl)sulfonyl)-N,N-dimethyl-[1,1′-biphenyl]-3-carboxamide Hydrochloride]

IC50 (LOXL2; [10]): 0.072 µM
SMILES: COCn1cc(-c2cc(OC)cc(S(=O)(=O)c3cnc(CN)s3)c2)cn1 [Example 141, (5-((3-Methoxy-5-(1-(methoxymethyl)-1H-pyrazol-4-yl)phenyl)sulfonyl)thiazol-2-yl)methanamine tri-trifluoroacetate]

IC50 (LOXL2; [10]): 0.56 µM
SMILES: NCc1ncc(S(=O)(=O)c2cc(C(=O)NCCO)cc(-c3ccccc3)c2)s1 [Example 152, 5-((2-(Aminomethyl)thiazol-5-yl)sulfonyl)-N-(2-hydroxyethyl)-[1,1′-biphenyl]-3-carboxamide Dihydrochloride]

IC50 (LOXL2; [10]): 0.077 µM
SMILES: CCNC(=O)c1cc(-c2ccccc2)cc(S(=O)(=O)c2cnc(CN)s2)c1 [Example 151, 5-((2-(Aminomethyl)thiazol-5-yl)sulfonyl)-N-ethyl-[1,1′-biphenyl]-3-carboxamide Dihydrochloride]

IC50 (LOXL2; [10]): 0.2 µM
SMILES: Cn1cc(-c2cc(C(=O)N3CC[C@@H](O)C3)cc(S(=O)(=O)c3cnc(CN)s3)c2)cn1 [Example 156, (R)-(3-(2-(Aminomethyl)thiazol-5-yl)sulfonyl)-5-(1-methyl-1H-pyrazol-4-yl)phenyl)(3-hydroxypyrrolidin-1-yl)methanone tri hydrochloride]

SMILES: Cn1cc(-c2cc(C(=O)O)cc(S(=O)(=O)c3cnc(CN)s3)c2)cn1 [Example 150, 3-(2-(Aminomethyl)thiazol-5-yl)sulfonyl)-5-(1-methyl-1H-pyrazol-4-yl)benzoic Acid Trihydrochloride]
IC50 (MAO-A): > 100 µM | AUC (in vivo [3]): 38 µM·h | Cmax (in vivo [3]): 10 µM | IC50 (MAO-B): > 100 µM

SMILES: N#CCCN [BAPN, beta-aminopropionitrile]
myocardial fibrosis (myocardial fibrosis): reduces myocardial fibrosis | local adipose tissue inflammation (adipose tissue): reduces local adipose tissue inflammation | symptoms of experimental pulmonary hypertension [4]: reduces the symptoms | MATN2 level ([1]; FIG. 15b): MATN2 reduction | MATN2 level ([1]; MDA-MB-231 cells, at a much higher concentration, FIG. 13): same effect | inhibition of MAO-A (MAO-A): neither inhibits | metastatic tumour growth ([5]; breast cancer cells in mice (Erler et al, 2006)): can block metastatic tumour growth | invasion and metastasis ([5]; orthotopic human breast tumours or circulating human breast cancer cells, CRC, HCC, LKB1-mutant lung adenocarcinoma, anaplastic thyroid cancer, PDAC in mice): significantly reduced invasion and metastasis | sensitivity to doxorubicin and paclitaxel (3D cell culture): can be restored | cardiac hypertrophy [6]: inhibits angiotensin II-induced cardiac hypertrophy | enhanced colonisation of the lung [7]: blocked | body weight gain [8]: reduces body weight gain | metabolic profile [8]: improves the metabolic profile | size of the granulomas (schistosomiasis; Giboda, Zenka et al. 1992): reduces the size of the granulomas | egg load (schistosomiasis; in combination with antiparasitic drug PZQ compared to PZQ alone): reduces the egg load | abscesses morphology and collagenisation (Staphylococcus Aureus): influences resulting abscesses morphology and collagenisation | TGF beta signalling as indicated by pSMAD2 [9]: increased TGF beta signalling | hypoxia-induced invasion and migration mediated by the EMT (cervical cancer cells): can be inhibited | in vitro invasion activity (human cancer cell lines): blocks the in vitro invasion activity | inhibition of MAO-B (MAO-B): neither inhibits

IC50 (LOXL2; [10]): 0.12 µM
SMILES: NCc1ccc(S(=O)(=O)c2cccc(S(=O)(=O)N3CCCC3c3ccccc3)c2)s1 (stereo not shown) [Example 124, (5-((3-((2-Phenylpyrrolidin-1-yl)sulfonyl)phenyl)sulfonyl)thiophen-2-yl)methanamine Hydrochloride]

IC50 (LOXL2; [10]): 0.41 µM
SMILES: COc1cc(-c2cn[nH]c2)cc(S(=O)(=O)c2cnc(CN)s2)c1 [Example 142, (5-((3-methoxy-5-(1H-pyrazol-4-yl)phenyl)sulfonyl)thiazol-2-yl)methanamine tri-trifluoroacetate]

IC50 (LOXL2; read-out: LOXL2 IC50 c) 20 hr, pre-incubation 20 hr, Method (c)): 1 µM
SMILES: NCc1ncc([S+]([O-])c2ccccc2)s1 (stereo not shown) [Example 95, (5-(Phenylsulfinyl)thiazol-2-yl)methanamine Hydrochloride]

SMILES: Cn1cc(-c2cc(F)cc(S(=O)(=O)c3cnc(CN)s3)c2)cn1 [Example 131, (5-(3-Fluoro-5-(1-methyl-1H-pyrazol-4-yl)phenyl)sulfonyl)thiazol-2-yl)methanamine Trihydrochloride]
IC50 (MAO-A): > 100 µM | IC50 (MAO-B): > 100 µM

IC50 (LOXL2; [10]): 1.2 µM
SMILES: CN(C)C(=O)c1cc(-c2cnn(C)c2)cc(S(=O)(=O)c2csc(CN)n2)c1 [Example 164, 3-(2-(Aminomethyl)thiazol-4-yl)sulfonyl)-N,N-dimethyl-5-(1-methyl-1H-pyrazol-4-yl)benzamide Hydrochloride]

IC50 (LOXL2; [10]): 0.48 µM
SMILES: CS(=O)(=O)c1cc(S(=O)(=O)c2ccc(CN)s2)ccc1-c1ccccc1 [Example 129, (5-((2-(Methylsulfonyl)-[1,1′-biphenyl]-4-yl)sulfonyl)thiophen-2-yl)methanamine Hydrochloride]

SMILES: Cc1ccc(-c2cc(S(=O)(=O)c3ccc(CN)s3)ccc2S(C)(=O)=O)cc1 [Example 82, (5-((4′-Methyl-6-(methylsulfonyl)-[1,1′-biphenyl]-3-yl)sulfonyl)thiophen-2-yl)methanamine Hydrochloride]
AUC (in vivo [3]): 12 µM·h | Cmax (in vivo [3]): 9.4 µM | IC50 (MAO-B): > 100 µM
